Data taken from patent US20230285504A1, “INHIBITION OF REPERFUSION INJURY WITH A PSD-95 INHIBITOR” (NONO INC., priority 2020, published 2023).
pEC50, pIC50: −log10 of the molar value. No end group written: not given here.

Columns and labels:
[1] = test system: patients with acute ischemic stroke (AIS) due to a large vessel arterial occlusion selected for endovascular thrombectomy; test: ESCAPE-NA1 phase 3 trial, exploratory re-analyses of dosing time (mRS 0-2 at 90 days); type: in vivo, human
Experimental: The details of the ESCAPE-NA1 methodology are published^2. In-brief, the trial was conducted at 48 sites globally. Adult patients aged 18 or greater with a disabling ischemic stroke (baseline National Institutes of Health Stroke Scale (NIHSS) score^11>5), CT evidence of a small-to-moderate ischemic core (ASPECTS 5-10)^12 and CTA evidence of LVO with a moderate-to-good collateral circulation^13,14 were enrolled in a window of up to 12 hours after the onset of stroke symptoms (last-seen-well time). Enrollment was stratified on the use of intravenous alteplase (yes/no) and declared initial thrombectomy device (stent-retriever or aspiration device). Randomized minimization was conducted within strata aimed to achieve distribution balance with regard to age, sex, baseline NIHSS, site of arterial occlusion, baseline ASPECTS and clinical site. Nerinetide and placebo vials were visually identical other than a unique vial number so that all trial personnel and patients were fully masked to treatment allocation.
After qualifying imaging, patients were treated with rapid EVT using currently available devices. Patients received intravenous alteplase^15 according to usual care following national or regional guidelines, before or during EVT, at a primary hospital prior to transfer or at the endovascular center. Treatment with alteplase was not a requirement for the study and interpretation of treatment guidelines was at the discretion of the treating team. Patients received trial drug (1:1 nerinetide:placebo), as a single dose of 2.6 mg/kg to a maximum dose of 270 mg as soon as possible after randomization. Time targets were imaging to randomization 30 minutes, imaging to study drug administration 60 minutes, and imaging to arterial access/puncture 60 minutes. Targets from imaging to reperfusion were 90th percentile 90 minutes and a median at 75 minutes.^16,17 Times (min) for workflow are summarized in Table 3.
The primary outcome was good outcome at 90 days as defined by a score of 0-2 on the modified Rankin scale (mRS) (range, 0 [no symptoms] to 6 [death]) for the assessment of neurologic functional disability^18-20. Secondary 90 day efficacy outcomes included neurological outcome as defined by the NIHSS of 0-2, functional independence in activities of daily living as defined by a Barthel Index score of 95, and mortality rates. Tertiary outcomes included assessments of stroke volumes on 24-hour imaging (MR or CT brain). Imaging interpretation was conducted at a central core laboratory and clinical data were verified by independent monitors. Infarct volumes were measured by summation of manual planimetric demarcation of infarct on axial imaging (636/1099 (57.9%) on CT and 463/1099 (42.1%) on MRI).
Analyses of efficacy in this stratum were conducted as per the primary analysis of ESCAPE-NA1 on the intention-to-treat (ITT) population, and comprised a logistic regression providing an adjusted estimate of effect size including treatment, the stratification variable of declared initial endovascular approach, and the baseline covariates of age, sex, baseline NIHSS score, baseline ASPECTS, occlusion location and clinical site. Analyses of secondary efficacy outcomes were conducted similarly to the primary analysis. To determine the impact of time metrics of interest on the efficacy of nerinetide (e.g., Onset to randomization, CT to reperfusion, Randomization to reperfusion, and Drug administration to reperfusion), the metrics variables were included in the regression analysis that was otherwise conducted like the primary analysis. Deceased patients were included in the ITT population with a mRS score of 6, a Barthel Index of 0 and NIHSS of 42. Missing primary outcomes (n=9) were imputed as the worst possible score, counted as poor outcome (mRS 3-6 dichotomy) and for mortality analysis, imputed as deaths. All analyses were performed with the use of STATA software (v16.0).

[2] = test system: transient middle cerebral artery occlusion (tMCAO); test: Dose-response study of nerinetide in transient middle cerebral artery occlusion; type: in vivo; details: rat tMCAo
Experimental: FIGS. 9A-B: Nerinetide is effective over a dosage range of at least 0.025-25 mg/kg in a rat tMCAo model in (A) reducing infarction size and (B) reducing neurologic deficit.
The cleavage of full-length nerinetide by high dose alteplase was incomplete, raising the possibility that some active drug could still remain to achieve neuroprotection. This was supported in rats by a dose-response study of nerinetide in a model of transient middle cerebral artery occlusion (tMCAO). Nerinetide and lodoxamide was administered to rats intravenously as a bolus injection, 60 minutes after tMCAo. […] Bars in A and represent mean±SD, with all individual data points plotted. […] Vehicle: PBS alone. Scrambled: ADA peptide incapable of binding PSD-95. Doses as low as 0.25 mg/kg produced a significant reduction in infarct volume (P=0.01) and an improvement in neurological function. Doses as low as 0.025 mg/kg were also effective. Doses up to at least 25 mg/kg were also effective with the highest efficacy being at about 15 mg/kg. The observed wide therapeutic range was attributable to nerinetide, and not to the mast cell degranulation inhibitor lodoxamide, which was present in all solutions to avoid potential hypotension due to histamine release.

[3] = Intrinsic fibrinolytic activity
[4] = target: second PDZ domain of PSD-95 protein (Homo sapiens, UniProt P78352); details: read-out: EC50 binding to second PDZ domain of PSD-95; cited from earlier work
Sequence of second PDZ domain of PSD-95 protein (P78352 160-246 limits assumed): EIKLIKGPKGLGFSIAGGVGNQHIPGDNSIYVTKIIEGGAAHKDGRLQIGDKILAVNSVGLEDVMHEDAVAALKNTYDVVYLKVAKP

[5] = test system: embolic middle cerebral artery occlusion (eMCAO)
Experimental: Nerinetide (7.6 mg/kg) was administered as an intravenous bolus injection either 30 minutes before, or simultaneously with, the onset of a 60-minute infusion of rt-PA (5.4 mg/kg with a 10% bolus followed by 90% over 60 minutes). […] Experimental timeline. […] Hemispheric Infarct volume measurements 24 hours after eMCAo. […] Percentage of hemispheric brain swelling 24 hours after eMCAo and (D). Neurological scores 24 hours after eMCAo. Treatments were administered intravenously at the times indicated in (A). Bars represent mean±SD, with all individual data points plotted. Significant differences (in B) and (in C) are indicated with an asterisk when compared to the control group/nerinetide alone or with a number sign when compare to the thrombolytic agent (one-way ANOVA post hoc Tukey's correction for multiple comparisons test, *P<0.01 or #P <0.01, respectively) N=12-15 animals/group. Significant differences (in D) are indicated with an asterisk when compared to the control group/nerinetide alone or with a number sign when compare to the thrombolytic agent (Kruskal-Wallis analysis of variance on ranks with a post-hoc Dunn's correction for multiple comparisons test, *P<0.01 or #P<0.01, respectively).
To test this, male Sprague-Dawley rats (10-12 weeks old; 270-310 g; Charles River, Montreal, QC, Canada) were subjected to embolic middle cerebral artery occlusion (eMCAO), produced by the introduction of an autologous blood thrombus into the middle cerebral artery. Reperfusion was achieved by treatment with intravenous alteplase at a total dose of 5.4 mg/kg beginning at 90 minutes after ischemia onset. Alteplase was administered using the human injection protocol in which 10% of the total dose is given as a bolus, with the remainder 90% of the dose being given over a 60-minute infusion. The dose of alteplase was 6 times the human dose, in anticipation that the rat fibrinolytic system may be less sensitive to human recombinant tPA. […] Nerinetide was administered either 30 minutes prior to, or concurrently with, the start of the alteplase administration (FIG. 7A) at a dose of 7.6 mg/kg. […] Infarct volumes, hemispheric swelling and neurological scores were evaluated at 24 hours.

[6] = target: protein-protein interactions of PSD-95 with N-Methyl-D-Aspartate glutamate receptors (NMDARs); details: read-out: IC50 perturbing PSD-95 interaction with NMDARs; cited from earlier work
[7] = test system: patients with acute ischemic stroke (AIS) due to a large vessel arterial occlusion selected for endovascular thrombectomy; details: published primary trial result; cited from earlier work
[8] = no-alteplase, drug started 22 or more minutes from initial reperfusion
[9] = no-alteplase, long CT to reperfusion interval (>=73.5 minutes)
[10] = no-alteplase, study drug started less than 5 minutes after groin puncture
[11] = nerinetide alone 7.6 mg/kg, 60 minutes after eMCAO, 24 hours
[12] = nerinetide at 60 minutes followed by alteplase 30 minutes later, 24 hours

For YGRKKRRQRRRKLSSIESDV [nerinetide], the “adj. OR for favorable outcome (mRS 0-2 at 90 days)” value ([1]; no-alteplase stratum, all time windows of 12 h enrollment, nerinetide 2.6 mg/kg vs placebo) was 1.757, the “absolute effect size of nerinetide over placebo” value [1, 8] was 16.25% and the relative effect [1, 8] was 50.0%. The “adj OR for functional outcome (mRS 0-2)” value [1, 9] was 5.100, the relative effect [1, 9] was 43.3% and the “unadjusted absolute effect size” value [1, 9] was 16.52%. The “adj OR for mRS(0-2)” value ([1]; no-alteplase, long interval drug infusion start to initial reperfusion (>=22 minutes)) was 2.715, the “adj OR for functional outcome (mRS 0-2)” value ([1]; no-alteplase, short CT to reperfusion interval (<73.5 minutes)) was 0.825 and the “adj OR for mRS(0-2)” value ([1]; no-alteplase, short interval drug infusion start to initial reperfusion (<22 minutes)) was 1.13. The “adj OR, primary analysis (mRS 0-2)” value ([1]; no-alteplase, study drug more than 5 minutes after groin puncture) was 1.50, the “adj OR, primary analysis (mRS 0-2)” value ([1]; no-alteplase, study drug started at any time less than 5 minutes after groin puncture) was 2.33 and the “absolute effect size of nerinetide over placebo” value [1, 10] was 16.56%. The relative effect [1, 10] was 36.1%, the absolute effect sizes ([1]; no-alteplase, treated in longer intervals from reperfusion (summary)) was “approximately 16%” and the absolute effect ([1]; whole no-alteplase stratum) was 9.65%. For the same sequence, the “dose of highest efficacy” value ([2]; 24 hours) was “about 15 mg/kg”, the “lowest dose also effective” value ([2]; 24 hours, doses as low as) was 0.025 mg/kg and the “upper dose also effective” value ([2]; 24 hours, doses up to at least) was “at least 25 mg/kg”. The “dose producing significant reduction in infarct volume (P=0.01) and improvement in neurological function” value ([2]; iv bolus with lodoxamide 60 minutes after tMCAo, 24 hours, doses as low as) was 0.25 mg/kg, the “effective dosage range (reducing infarction size and neurologic deficit)” value ([2]; iv bolus with lodoxamide 60 minutes after tMCAo, read 24 hours) was 0.025-25 mg/kg and the intrinsic fibrinolytic activity [3] was “does not have any intrinsic fibrinolytic activity”. For the same sequence, the pEC50 [4] was ~8.15, the “beneficial effect of nerinetide on infarction volume” value ([5]; nerinetide administered concurrently with alteplase at 60 min after eMCAO) was “eliminated completely” and the infarction volume [5, 11] was 175±40 mm3. For the same sequence, the “reduction of infarction volume” value [5, 11] was 59.2%, the infarct volume reduction ([5]; nerinetide at 60 minutes followed by alteplase 30 minutes later) was 70% and the hemispheric swelling [5, 12] was “reducing hemispheric swelling”. For the same sequence, the neurological scores [5, 12] was “improving neurological scores”, the pIC50 [6] was 5.10 to 6.00 and the “outcome in ESCAPE-NA1, nerinetide group that did not receive alteplase” value [7] was “improved functional independence, reduced mortality, and reduced infarct volume”. The “outcome in ESCAPE-NA1, patients that received alteplase” value [7] was “did not benefit”.
